Data published in patent US11766430B2, “Methods of using a phenoxypropylamine compound to treat pain” (Minerva Neurosciences, Inc., priority 2018, dated 2023).
Where “and” joins values, the source holds several entries; their conditions need not be identical. Equal values may be shown once.

Test system: carrageenan-induced mechanical hyperalgesia in rats
Assay: Carrageenan-induced mechanical hyperalgesia, paw pressure test, time course to 240 min (Example 2)
Assay type: in vivo, male Sprague-Dawley rats
Conditions: for Effect on injured paw withdrawal threshold vs vehicle-treated group (in words): time course 30-240 min
Method: In this model, inflammation is induced by intraplantar injection of carrageenan (2%) into the right hindpaw of the rat. Three hours later, reaction thresholds are measured using the paw pressure test. Pressure is gradually applied to both hind paws (inflamed and control) of the rat, and reaction thresholds are determined as the pressure (g) required to elicit paw withdrawal or vocalization. Morphine (3 mg/kg, s.c.) was used as a positive control.
The experiments in this study used fifty (50) male Sprague-Dawley rats (SPF status, Janvier, France), each weighing 204-260 grams. The rats were housed in a temperature (20-24° C.) and relative humidity (45%-65%) controlled room and acclimated to an artificial day/night cycle of 12 hours light (6.30 a.m. to 6.30 p.m.)/12 hours darkness. Rats had free access to sterilized tap water and were fed ad libitum with pelleted complete diet (reference A04, S.A.F.E.). Rats were housed 4 per cage (cages Type E) and were acclimated for a period of at least 5 days before any testing. Each rat was identified by tail markings. Based on the SPF status of the animal facilities, there is no reason to expect that contaminants were present in the food, water or bedding, at levels capable of interfering with the results of the tests.
Pain Test: Static mechanical hyperalgesia was assessed using the Paw Pressure test or Randall & Selitto test (Randall, L. O. and Selitto, J. J., A method for measurement of analgesic activity on inflamed tissue, Arch Int Pharmacodyn, 1957(111): 409-419). This test requires the application of an increasing pressure on the hind paws between a flat surface and a blunt pointer. This test is usually used with animals with one hind paw inflamed by an injection or injured by ligation, and one normal hind paw, to evaluate drugs for analgesic action. The apparatus exerts a steadily increasing force and reaction threshold is determined as the pressure (g) required to elicit paw withdrawal and/or vocalization. In the experiment, animals were gently handled by the experimenter and static mechanical hyperalgesia was assessed. Each reaction threshold measurement was done for both hind paws.
Five (5) experimental groups of 10 rats each were used. Each group was first injected with of 100 μL of a 2% carrageenan suspension in the plantar aspect of the right hindpaw. Three hours after carrageenan injection, paw withdrawal threshold was measured using the paw pressure test (Baseline). The 5 groups were then administered the following: • Group 1: vehicle (0.5% HPMC), i.p., solution (negative control); • Group 2: MIN-117 (0.01 mg/kg, i.p.) in 0.5% HPMC, suspension; • Group 3: MIN-117 (0.1 mg/kg, i.p.) in 0.5% HPMC, suspension; • Group 4: MIN-117 (1 mg/kg, i.p.) in 0.5% HPMC, suspension; and • Group 5: morphine (3 mg/kg, s.c.) in 0.9% NaCl, solution (positive control).
After administering vehicle, MIN-117, or morphine, the antihyperalgesic effect of the compounds was evaluated using the paw pressure test at 0 min. (T0), 30 min., 60 min., 120 min., and 240 min.
Vehicle and MIN-117 were administered intraperitoneally at 10 mL/kg. Morphine was subcutaneously administered at 5 mL/kg. Dosing and testing were performed in a random order by a blinded experimenter except for the morphine-treated group. Doses were expressed in terms of free active substance. Rats were sacrificed at the end of the experiment by CO2 inhalation pending subsequent removal by a certified company.
Results were assessed as: the paw withdrawal threshold (mean±s.e.m.) in grams of contact pressure for each group, calculated from individual paw withdrawal thresholds; the percentage of variation of the paw withdrawal threshold calculated from the mean value of the vehicle-treated group; and/or the percentage of activity. To determine a statistical effect of the test substance and the reference substance, data were analyzed by a non-parametrical test. The significance level was p<0.05.

[1] = 1 mg/kg i.p., T0 (baseline before dosing)
[2] = 1 mg/kg i.p., T0 (baseline before dosing), hydrochloride
[3] = 1 mg/kg i.p., T0 + 30 min, hydrochloride

## Cc1nnc(-c2cc3c(OC[C@@H](O)CN4CCC(c5ccc(Cl)c(Cl)c5)CC4)cccc3o2)o1.Cl [MIN-117, (2S)-1-(4-(3,4-dichlorophenyl)piperidin-1-yl)-3-((2-(5-methyl-1,3,4-oxadiazol-2-yl)benzofuran-4-yl)oxy)propan-2-ol hydrochloride]
0.1 mg/kg i.p., T0 (baseline before dosing), hydrochloride
  Nociceptive threshold, injured paw (mean ± s.e.m.): 178 ± 5.5 g and 178 g
0.1 mg/kg i.p., T0 + 30 min
  % activity, injured paw: 3%
  % variation vs control paw, injured paw: −48%
  % variation vs pre-drug threshold, injured paw: 3%
  % variation vs vehicle-treated group, injured paw: 3%
  Nociceptive threshold, control paw (mean ± s.e.m.): 354 g
0.1 mg/kg i.p., T0 + 30 min, hydrochloride
  Nociceptive threshold, injured paw (mean ± s.e.m.): 184 ± 5.0 g and 184 g
0.1 mg/kg i.p., T0 + 60 min
  % activity, injured paw: −5%
  % variation vs control paw, injured paw: −48%
  % variation vs pre-drug threshold, injured paw: 1%
  % variation vs vehicle-treated group, injured paw: −4%
  Nociceptive threshold, control paw (mean ± s.e.m.): 348 g
0.1 mg/kg i.p., T0 + 60 min, hydrochloride
  Nociceptive threshold, injured paw (mean ± s.e.m.): 180 ± 7.9 g and 180 g
0.1 mg/kg i.p., T0 + 120 min
  % activity, injured paw: −5%
  % variation vs control paw, injured paw: −50%
  % variation vs pre-drug threshold, injured paw: 0%
  % variation vs vehicle-treated group, injured paw: −4%
  Nociceptive threshold, control paw (mean ± s.e.m.): 354 g
0.1 mg/kg i.p., T0 + 120 min, hydrochloride
  Nociceptive threshold, injured paw (mean ± s.e.m.): 178 ± 7.6 g and 178 g
0.1 mg/kg i.p., T0 + 240 min
  % activity, injured paw: −4%
  % variation vs control paw, injured paw: −49%
  % variation vs pre-drug threshold, injured paw: 1%
  % variation vs vehicle-treated group, injured paw: −3%
  Nociceptive threshold, control paw (mean ± s.e.m.): 350 g
0.1 mg/kg i.p., T0 + 240 min, hydrochloride
  Nociceptive threshold, injured paw (mean ± s.e.m.): 180 ± 8.4 g and 180 g
0.1 mg/kg i.p.
  Effect on injured paw withdrawal threshold vs vehicle-treated group (in words): did not induce any significant increase
[1]
  % activity, injured paw: 3%
  % variation vs control paw, injured paw: −50%
  % variation vs vehicle-treated group, injured paw: 3%
[2]
  Nociceptive threshold, control paw (mean ± s.e.m.): 374.0 ± 12.7 g and 374 g
  Nociceptive threshold, injured paw (mean ± s.e.m.): 188 ± 9.0 g and 188 g
1 mg/kg i.p., T0 + 30 min
  % activity, injured paw: 1%
  % variation vs control paw, injured paw: −49%
  % variation vs vehicle-treated group, injured paw: 1%
  Nociceptive threshold, control paw (mean ± s.e.m.): 356 g
[3]
  % variation vs pre-drug threshold, injured paw: −4% and 4%
  Nociceptive threshold, injured paw (mean ± s.e.m.): 180 ± 7.3 g and 180 g
1 mg/kg i.p., T0 + 60 min
  % activity, injured paw: 14%
  % variation vs control paw, injured paw: −45%
  % variation vs pre-drug threshold, injured paw: 13%
  % variation vs vehicle-treated group, injured paw: 13%
  Nociceptive threshold, control paw (mean ± s.e.m.): 380 g
1 mg/kg i.p., T0 + 60 min, hydrochloride
  Nociceptive threshold, injured paw (mean ± s.e.m.): 212 ± 12.4 g and 212 g
1 mg/kg i.p., T0 + 120 min
  % activity, injured paw: 29%
  % variation vs control paw, injured paw: −41%
  % variation vs pre-drug threshold, injured paw: 23%
  Nociceptive threshold, control paw (mean ± s.e.m.): 392 g
1 mg/kg i.p., T0 + 120 min, hydrochloride
  Nociceptive threshold, injured paw (mean ± s.e.m.): 232 ± 7.4 g and 232 g
1 mg/kg i.p., T0 + 240 min
  % activity, injured paw: 1%
  % variation vs control paw, injured paw: −49%
  % variation vs pre-drug threshold, injured paw: 0%
  % variation vs vehicle-treated group, injured paw: 1%
  Nociceptive threshold, control paw (mean ± s.e.m.): 370 g
1 mg/kg i.p., T0 + 240 min, hydrochloride
  Nociceptive threshold, injured paw (mean ± s.e.m.): 188 ± 6.1 g and 188 g
1 mg/kg i.p.
  Effect on injured paw withdrawal threshold vs vehicle-treated group (in words): slight increase in the nociceptive threshold becoming significant 120 min. after injection
